Test results as given in publication PMC11767586, “Cuphea hookeriana: Phytochemical Profile and the Cosmeceutical and Dermatological Properties of Its Active Fraction from the Whole Plant” (Molecules, 2025).
Converted amounts (≈) assume the structure as drawn.

Target: T1, mushroom tyrosinase
T1 construct: gene PPO1
Test: L-dopa oxidation, absorbance at […] nm
Assay type: biochemical
Conditions: L-dopa 2 mM stock, phosphate pH 6.8, 37 °C, 30 min; positive control

IC50: 0.27 mg/mL (≈ 992 µM)
SMILES: OC[C@H]1O[C@H](Oc2ccc(O)cc2)[C@H](O)[C@@H](O)[C@@H]1O [α-arbutin]
